The target in test [1] is MAPK14 (human) (UniProt Q16539). Nature of the test: Inhibition of MAPK14 Kinase Activity.
Test [2] shares this target. The test can be described thus: Assessment of Phosphorylation of MAPK14 in HeLa Cell Line.

The text below walks through data of the Kinase Knowledgebase extract (Sharma et al. 2016).

Values joined by “and” are separate entries in the source; they are usually repeats but may differ in a detail not shown here. Identical values can stand only once. Bounds are passed on as bounds.

In general, IC50 refers to the point on the concentration scale where inhibition reaches its midpoint. Low values mean greater potency, high ones weaker potency.

Chain of MAPK14 (human) (Q16539 whole entry, looked up): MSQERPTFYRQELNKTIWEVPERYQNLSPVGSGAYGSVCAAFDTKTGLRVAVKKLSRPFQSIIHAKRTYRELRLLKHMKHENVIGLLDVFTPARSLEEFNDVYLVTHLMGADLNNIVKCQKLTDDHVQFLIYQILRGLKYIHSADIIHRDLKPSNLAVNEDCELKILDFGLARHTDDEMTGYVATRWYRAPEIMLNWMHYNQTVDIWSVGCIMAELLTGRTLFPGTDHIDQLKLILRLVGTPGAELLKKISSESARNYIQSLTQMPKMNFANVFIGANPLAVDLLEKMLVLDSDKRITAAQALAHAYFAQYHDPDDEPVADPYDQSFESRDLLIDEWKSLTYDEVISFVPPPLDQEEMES

For the molecule `CCOC[C@H](C)Nc1nc2ccc(-c3nc(C4(CO)CC4)[nH]c3-c3ccc(F)cc3F)nc2o1`, the concentration for half-maximal inhibition (IC50) at MAPK14 (human) [1] and at MAPK14 (human) [2] was < 50 nM in each case.
Take `COCC[C@H](C)Nc1nc2ccc(-c3nc(C4CC4)[nH]c3-c3ccc(F)cc3F)nc2o1`: the IC50 against MAPK14 (human) [1] and against MAPK14 (human) [2] was < 50 nM throughout.
Take `COCC[C@H](C)Nc1nc2ccc(-c3nc(C4(C)COC4)[nH]c3-c3ccc(F)cc3F)nc2o1`: the half-maximal inhibitory concentration (IC50) at MAPK14 (human) [1] and against MAPK14 (human) [2] was < 50 nM in each case.
Consider `COCC[C@H](C)Nc1nc2ccc(-c3nc(C(C)(C)CO)[nH]c3-c3ccc(F)cc3F)nc2o1`, for which the IC50 is < 50 nM at MAPK14 (human) [1]; 1.6 nM and < 50 nM at MAPK14 (human) [2].
Regarding `COCC[C@@H](C)Nc1nc2ccc(-c3nc(C(C)(C)CO)[nH]c3-c3ccc(F)cc3F)nc2o1`, the IC50 against MAPK14 (human) [1] and on MAPK14 (human) [2] was < 50 nM each time.
